Measured values from ChEMBL document CHEMBL1131275, “Synthesis and structure-activity relationships of CP-122,721, a second-generation NK-1 receptor antagonist” (Bioorg Med Chem Lett, 1998).

What was measured:
Cavia porcellus [1] = species: Cavia porcellus; assay: Compound tested for SP-induced plasma extravasation in guinea pig perorally; assay type: functional; conditions: po, read-out: ID50 (the source's name)
Cavia porcellus [2] = species: Cavia porcellus; assay: Inhibition of aerosolized capsaicin-induced plasma protein extravasation in guinea pig lung by peroral dose; assay type: functional; conditions: read-out: ID50 (the source's name)
Cavia porcellus [3] = species: Cavia porcellus; assay: Inhibition of capsaicin-induced plasma extravasation in guinea pig ureter by peroral dose; assay type: functional; conditions: po, read-out: ID50 (the source's name)
Cavia porcellus [4] = assay: Compound was tested for blockade of locomotor activity in guinea pig, elicited by icv administered Sar9Met(O2)-SP; assay type: functional; conditions: central, read-out: ID50 (the source's name)
Cavia porcellus [5] = species: Cavia porcellus; assay: Compound tested for blockade of cisplatin-induced emesis in guinea pig perorally; assay type: functional; conditions: po, read-out: ID50 (the source's name)
Substance-P receptor = Substance-P receptor (Homo sapiens, UniProt P25103); assay: Antagonist activity for Tachykinin receptor 1 as displacement of [3H]-Substance P in human IM-9 cells; assay type: functional, cell-based
Sequence of Substance-P receptor (P25103 whole entry): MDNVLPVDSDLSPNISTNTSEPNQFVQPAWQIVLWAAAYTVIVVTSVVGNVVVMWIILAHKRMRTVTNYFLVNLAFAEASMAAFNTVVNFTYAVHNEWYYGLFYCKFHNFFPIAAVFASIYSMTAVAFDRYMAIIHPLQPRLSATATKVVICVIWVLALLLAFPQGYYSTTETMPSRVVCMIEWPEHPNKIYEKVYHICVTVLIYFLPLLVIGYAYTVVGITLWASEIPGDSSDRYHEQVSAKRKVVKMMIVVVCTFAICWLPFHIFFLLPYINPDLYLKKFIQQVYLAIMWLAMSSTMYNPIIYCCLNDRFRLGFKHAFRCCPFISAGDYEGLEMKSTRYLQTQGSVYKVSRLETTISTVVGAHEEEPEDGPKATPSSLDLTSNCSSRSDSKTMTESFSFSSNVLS

Cavia porcellus [6] = species: Cavia porcellus; assay: Inhibition of aerosolized capsaicin-induced plasma protein extravasation in guinea pig ureter by peroral dose; assay type: functional; conditions: read-out: ID50 (the source's name)
Cavia porcellus [7] = assay: Compound was tested for blockade of locomotor activity in the guinea pig elicited by icv administered Sar9Met(O2)-SP; assay type: functional; conditions: central, read-out: ID50 (the source's name)

IC50 (Substance-P receptor) [nM]	Structure (SMILES)	also measured
–	COc1ccc(OC(F)(F)F)cc1CN[C@H]1CCCN[C@H]1c1ccccc1	ED50 (Cavia porcellus [1]): 0.05 mg/kg; ED50 (Cavia porcellus [2]): 0.01 mg/kg; ED50 (Cavia porcellus [3]): 0.02 mg/kg; ED50 (Cavia porcellus [4]): 0.01 mg/kg; ED50 (Cavia porcellus [5]): 0.08 mg/kg
0.18	CC(C)Oc1ccc(OC(F)(F)F)cc1CN[C@H]1CCCN[C@H]1c1ccccc1	–
0.8	FC(F)(F)Oc1ccccc1CN[C@H]1CCCN[C@H]1c1ccccc1	–
10.9	Oc1ccc(OC(F)(F)F)cc1CN[C@H]1CCCN[C@H]1c1ccccc1	–
0.11	COc1ccc(N(C)S(C)(=O)=O)cc1CN[C@H]1CCCN[C@H]1c1ccccc1	–
0.14	COc1ccc(Cl)cc1CN[C@H]1CCCN[C@H]1c1ccccc1	–
0.14	CCOc1ccc(OC(F)(F)F)cc1CN[C@H]1CCCN[C@H]1c1ccccc1	–
0.09	COc1ccc(OC)c(CN[C@H]2CCCN[C@H]2c2ccccc2)c1	–
0.46	CC(C)Oc1ccccc1CN[C@H]1CCCN[C@H]1c1ccccc1	–
0.41	FC(F)Oc1ccccc1CN[C@H]1CCCN[C@H]1c1ccccc1	–
0.56	COc1ccc(N(C)C)cc1CN[C@H]1CCCN[C@H]1c1ccccc1	–
–	COc1ccccc1CN[C@H]1CCCN[C@H]1c1ccccc1 [CP-99994]	ED50 (Cavia porcellus [1]): 31 mg/kg; ED50 (Cavia porcellus [2]): 5 mg/kg; ED50 (Cavia porcellus [6]): 2.9 mg/kg; ED50 (Cavia porcellus [7]): 0.6 mg/kg
